Measurements: patent US4690937A, “Anti-hypertensive agents” (University of Miami, priority 1979, dated 1987)
Where two headings read alike, the source gives them in different places. Residues, ends and D or L forms follow the SMILES beside them. *: point of attachment. Bz = O=C(c1ccccc1)*

What was measured:
[1] = molecular target: T1, ACE (Homo sapiens, UniProt P12821); conditions: previously disclosed compounds of copending applications, read-out: I50, cited from earlier work
T1 construct: same enzyme (human urinary ACE); from tissue; host or cells: human urine (purified as described by Ryan et al., Tissue and Cell 10, 555 (1978))
T1 sequence (P12821 30-1232 limits assumed): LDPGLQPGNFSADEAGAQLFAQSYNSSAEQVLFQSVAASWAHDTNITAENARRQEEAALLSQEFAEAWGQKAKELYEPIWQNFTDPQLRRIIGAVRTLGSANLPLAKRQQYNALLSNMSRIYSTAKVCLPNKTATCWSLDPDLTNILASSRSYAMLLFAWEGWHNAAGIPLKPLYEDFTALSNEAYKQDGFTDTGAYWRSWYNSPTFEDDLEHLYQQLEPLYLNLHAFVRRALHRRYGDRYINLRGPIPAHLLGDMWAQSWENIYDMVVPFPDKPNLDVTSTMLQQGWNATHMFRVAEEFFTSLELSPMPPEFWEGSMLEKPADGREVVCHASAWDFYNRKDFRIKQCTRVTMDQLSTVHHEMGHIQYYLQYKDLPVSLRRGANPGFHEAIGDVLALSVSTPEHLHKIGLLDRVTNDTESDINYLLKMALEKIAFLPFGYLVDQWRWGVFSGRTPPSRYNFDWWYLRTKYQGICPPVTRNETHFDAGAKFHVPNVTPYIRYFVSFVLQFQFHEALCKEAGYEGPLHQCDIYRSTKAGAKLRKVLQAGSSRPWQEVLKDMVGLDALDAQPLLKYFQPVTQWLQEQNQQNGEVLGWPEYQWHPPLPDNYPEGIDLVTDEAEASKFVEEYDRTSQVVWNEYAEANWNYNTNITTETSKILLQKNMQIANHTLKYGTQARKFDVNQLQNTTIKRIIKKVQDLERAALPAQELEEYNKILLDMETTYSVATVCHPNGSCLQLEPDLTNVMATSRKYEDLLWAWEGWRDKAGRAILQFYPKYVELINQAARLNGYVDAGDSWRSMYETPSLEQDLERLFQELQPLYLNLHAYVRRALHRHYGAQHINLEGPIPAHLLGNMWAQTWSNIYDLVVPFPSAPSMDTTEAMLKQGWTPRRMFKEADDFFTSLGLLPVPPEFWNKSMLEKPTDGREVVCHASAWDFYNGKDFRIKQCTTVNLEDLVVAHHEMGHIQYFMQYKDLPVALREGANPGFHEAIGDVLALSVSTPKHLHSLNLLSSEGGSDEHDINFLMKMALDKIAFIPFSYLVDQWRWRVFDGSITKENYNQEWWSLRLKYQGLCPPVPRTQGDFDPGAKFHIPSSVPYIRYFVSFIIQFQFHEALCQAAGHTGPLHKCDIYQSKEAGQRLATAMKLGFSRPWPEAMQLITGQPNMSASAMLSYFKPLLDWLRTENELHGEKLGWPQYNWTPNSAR

[2] = molecular target: T1, ACE; test: ACE activity assay in vitro (I50, hydrolysis of [3H]-Benzoyl-GlyHisLeu); assay type: biochemical
Protocol: These factors include the source of enzyme, its purity, the substrate used and its concentration, and the composition of the assay buffer. All I50 data reported herein have been performed with the same assay system and same enzyme (human urinary ACE) and with an approximately 1/2 Km level of substrate and are therefore internaly consistent.
To initiate the assay, 40 μl of enzyme and 10 μl of water or inhibitor dissolved in water were preincubated for five minutes at 37° C. […] To terminate the reaction, 1 ml of 0.1M HCl was added, following which 1 ml of ethyl acetate was added. The mixture was agitated on a rotary mixer and centrifuged briefly to separate the phases.
An aliquot, 500μl, of the ethyl acetate layer was transferred to a liquid scintillation vial containing 10 ml of Riafluor, trademark New England Nuclear Corporation, Boston, Mass. For determination of I50 values, enzyme activity in the presence of inhibitor at a series of different concentrations was compared to activity in the absence of inhibitor.

[3] = system: mean arterial blood pressure response to angiotensin I; test: Oral effectiveness: blood pressure response to angiotensin I in anesthetized rats; assay type: in vivo; conditions: rat, oral 20 μmol/kg, -5 min (pre-dose control, 25 mm Hg)
Protocol: (§1) Rats (210-290 g body weight) were fasted overnight and then anesthetized with intraperitoneal pentobarbital, 50-60 mg/kg. Tracheostomy was performed and the animals were ventilated mechanically. A cannula was inserted into a femoral vein for injection of angiotensin I, and a second cannula was inserted into a common carotid artery for direct measurement of arterial blood pressure. Heparin, 1,000 units, was injected via the femoral vein to prevent coagulation. Blood pressure was measured with a pressure transducer connected to a polygraph. The rats were injected with […] of angiotensin I in 20μl of 0.9 g % NaCl; an amount of angiotensin I sufficient to raise mean arterial blood pressure by 25 mm Hg. After the responsiveness of a given rat to angiotensin I was established, the named compound at 20 μmol/kg (drug dissolved in 0.15 ml of H2 O plus 10μl of 1 N NaHCO3), was given via a stomach tube. At timed intervals, the effects of 400 ng/kg of angiotensin I on mean arterial blood pressure were tested.

[4] = system: mean arterial blood pressure response to angiotensin I; test: Intravenous effectiveness: blood pressure response to angiotensin I in anesthetized rats; assay type: in vivo; conditions: rat, in words
Protocol: as §1, with “tested. Results are shown below:” for “tested.”
Anesthetized rats were prepared as described in Example 18. The named compound was administered intravenously via a femoral vein, at the stated dose, in 15 μl of 0.01 N sodium bicarbonate. […] The time required for recovery of one half the lost responsiveness to angiotensin I, following injection of the named compound, is designated t1/2. […]

[5] = system: ACE; conditions: disulfide formed on standing of aqueous solution; cited from earlier work

## O=C(N[C@@H](Cc1ccccc1)C(=O)SCCC(=O)N1CCC[C@H]1C(=O)O)c1ccccc1
[1]; approximate
  IC50: ~700 nM

## CC(C)C[C@H](NC(=O)[C@H](Cc1cnc[nH]1)NC(=O)CNC(=O)c1ccccc1)C(=O)O [Benzoyl-GlyHisLeu, reference compound] (Bz-Gly-His-Leu-OH)
[2]; substrate Benzoyl-GlyHisLeu, 0.05M Hepes pH 8.0, 0.1M NaCl, 0.75M Na2 SO4
  Km: ~200 µM

## CC(SC(=O)[C@H](Cc1ccccc1)NC(=O)c1ccccc1)C(=O)N1CC=C[C@H]1C(=O)O (stereo partly drawn) [N-(2-benzoylphenylalanylthiopropanoyl)-L-3,4-dehydroproline]
[1]; for racemic compound
  IC50: 3 nM

## C[C@H](CSC(=O)[C@H](Cc1c[nH]c2ccccc12)NC(=O)c1ccccc1)C(=O)N1CCC[C@H]1C(=O)O [N^α -[3-(Nα-benzoyl-L-tryptophylthio)-2-D-methylpropanoyl]-L-proline]
[2]; ACE purified from human urine, pH 8.0, 37° C., Benzoyl-GlyHisLeu 1×10^-4 M
  IC50: 9.4 nM
[3]
  Blood Pressure Response to 400 ng/kg of Angiotensin I: 100 % of Control
[4]
  Response to intravenous administration (responsiveness to Angiotensin I, 400 ng/kg): rapid decrease in responsiveness to Angiotensin I, 400 ng/kg, followed by a gradual recovery to the pretreatment level of responsiveness

## C[C@H](CSSC[C@@H](C)C(=O)N1CCC[C@H]1C(=O)O)C(=O)N1CCC[C@H]1C(=O)O [disulfide]
[5]
  ACE inhibition by the disulfide dimer: largely inactive as an inhibitor
